Activity calls are given as the source filed them. The rule behind the calls is not given here.
Legend:
GT1-7 = assay: Antiprion activity in human transmissible spongiform encephalopathies agent Fukuoka-1 prion infected GT1-7 cells assessed as proteinase K-resistant proteins at 10 uM after 3 days Western blotting analysis relative to control; format: cell-based
Mus musculus [1] = species: Mus musculus; assay: Effect on PrPc expression level in mouse GT1-7 at 10 uM after 3 days by Western blot method
[2] = Antiprion activity in human transmissible spongiform encephalopathies agent Fukuoka-1 prion infected GT1-7 cells assessed as proteinase K-resistant proteins after 3 days Western blotting analysis; format: cell-based; settings: GT1-7, 72 h
[3] = Cytotoxicity against mouse GT1-7 cells at 2 uM; format: cell-based; settings: gt1-7, 2 µM
Mus musculus [4] = species: Mus musculus; assay: Effect on PrPc expression level in mouse GT1-7 at 2 uM after 3 days by Western blot method
Mus musculus [5] = species: Mus musculus; assay: Binding affinity to mouse PrPC by surface plasmon resonance

Row | SMILES | Activity (GT1-7) | further results
1 | O=C(CN1CCCC1)Nc1ccc(C(O)c2ccc(NC(=O)CN3CCCC3)cc2)cc1 | 62% | –
2 | CC(=O)Nc1ccc(Cc2ccc(NC(=O)CN3CCCC3)cc2)cc1 | 91% | –
3 | O=C(CN1CCCC1)Nc1ccc(Cc2cccc(NC(=O)CN3CCCC3)c2)cc1 | 19% | Activity (Mus musculus [1]): inactive
4 | O=C(CN1CCCC1)Nc1ccc(Cc2ccc(NC(=O)CN3CCC[C@H]3CO)cc2)cc1 | 47% | Activity (Mus musculus [1]): inactive
5 | CC(C)(c1ccc(NC(=O)CN2CCCC2)cc1)c1ccc(C(C)(C)c2ccc(NC(=O)CN3CCCC3)cc2)cc1 | – | IC50 [2]: 690 nM
6 | Cc1cc(Cc2cc(C)c(NC(=O)CN3CCCC3)c(C)c2)cc(C)c1NC(=O)CN1CCCC1 | 22% | Activity (Mus musculus [1]): inactive
7 | COc1cc(-c2ccc(NC(=O)CN3CCCC3)c(OC)c2)ccc1NC(=O)CN1CCCC1 | 42% | –
8 | O=C(CN1CC[C@@H](F)C1)Nc1ccc(Cc2ccc(NC(=O)CN3CC[C@@H](F)C3)cc2)cc1 | 93% | –
9 | CCCCNCC(=O)Nc1ccc(Cc2ccc(NC(=O)CNCCCC)cc2)cc1 | 24% | –
10 | CCN(CC)CC(=O)Nc1ccc(Cc2ccc(NC(=O)CN(CC)CC)cc2)cc1 | 23% | Activity (Mus musculus [1]): inactive
11 | O=C(CN1CCCC1)Nc1ccc(C(c2ccc(F)cc2)(c2ccc(NC(=O)CN3CCCC3)cc2)C(F)(F)F)cc1 | – | IC50 [2]: 510 nM; Activity [3]: Non-toxic; Activity (Mus musculus [4]): inactive; RU (Mus musculus [5]): 32
12 | O=C(CN1C(=O)CCC1=O)Nc1ccc(Cc2ccc(NC(=O)CN3C(=O)CCC3=O)cc2)cc1 | 90% | –
13 | Nc1ccc(/N=N/c2ccccc2)c(N)c1 | inactive | –
14 | O=C(CN1CCCC1)Nc1ccc(S(=O)(=O)c2ccc(NC(=O)CN3CCCC3)cc2)cc1 | 17% | Activity (Mus musculus [1]): inactive
15 | O=C(Nc1ccc(Cc2ccc(NC(=O)[C@@H]3CCCN3)cc2)cc1)[C@@H]1CCCN1 | 25% | –
16 | O=C(CN1CCCCC1)Nc1ccc(Cc2ccc(NC(=O)CN3CCCCC3)cc2)cc1 | 24% | Activity (Mus musculus [1]): inactive
17 | O=C(CN1CCCC1)NCCc1ccc(NC(=O)CN2CCCC2)cc1 | 86% | –
18 | O=C(CN1CCCC1)Nc1ccc(Cc2ccc(NC(=O)CN3CCC[C@@H]3CO)cc2)cc1 | 44% | Activity (Mus musculus [1]): inactive
19 | CN(C)[C@@H]1CCN(CC(=O)Nc2ccc(Cc3ccc(NC(=O)CN4CC[C@@H](N(C)C)C4)cc3)cc2)C1 | 31% | Activity (Mus musculus [1]): inactive
20 | CC(C)N(CC(=O)Nc1ccc(Cc2ccc(NC(=O)CN(C(C)C)C(C)C)cc2)cc1)C(C)C | 20% | –
21 | Nc1c(/N=N/c2ccc(-c3ccc(/N=N/c4cc(S(=O)(=O)O)c5ccccc5c4N)cc3)cc2)cc(S(=O)(=O)O)c2ccccc12 [CONGO RED] | – | IC50 [2]: 5500 nM
22 | CCN(CC)CCCC(C)Nc1c2ccc(Cl)cc2nc2ccc(OC)cc12 (configuration not stated) [QUINACRINE] | – | IC50 [2]: 1100 nM
23 | O=C(CN1CCOCC1)Nc1ccc(Cc2ccc(NC(=O)CN3CCOCC3)cc2)cc1 | 93% | –
24 | O=C(CN1CC[C@@H](O)C1)Nc1ccc(Cc2ccc(NC(=O)CN3CC[C@@H](O)C3)cc2)cc1 | 108% | –

Row | SMILES | Activity (GT1-7) | further results
25 | NCC(=O)Nc1ccc(Cc2ccc(NC(=O)CN3CCCC3)cc2)cc1 | 62% | –
26 | CC(c1ccccc1)(c1ccc(NC(=O)CN2CCCC2)cc1)c1ccc(NC(=O)CN2CCCC2)cc1 | – | IC50 [2]: 660 nM
27 | CC(C)(c1ccc(NC(=O)CN2CCCC2)cc1)c1cccc(C(C)(C)c2ccc(NC(=O)CN3CCCC3)cc2)c1 | – | IC50 [2]: 830 nM
28 | COC(=O)[C@@H]1CCCN1CC(=O)Nc1ccc(Cc2ccc(NC(=O)CN3CCC[C@H]3C(=O)OC)cc2)cc1 | 61% | –
29 | O=C(CN1CCCC1)Nc1ccc(Cc2ccc(NC(=O)CN3CCOCC3)cc2)cc1 | 77% | –
30 | O=C(CN1CCCC1)Nc1ccc2c(c1)Cc1cc(NC(=O)CN3CCCC3)ccc1-2 | 45% | –
31 | O=C(CN1CCCC1)Nc1ccc(Oc2ccc(NC(=O)CN3CCCC3)cc2)cc1 | 35% | –
32 | O=C(Cn1cccn1)Nc1ccc(Cc2ccc(NC(=O)Cn3cccn3)cc2)cc1 | 106% | –
33 | COc1ccccc1C(c1ccc(NC(=O)CN2CCCC2)cc1)c1ccc(NC(=O)CN2CCCC2)cc1 | – | IC50 [2]: 580 nM
34 | O=C(CC1CCCC1)Nc1ccc(Cc2ccc(NC(=O)CC3CCCC3)cc2)cc1 | 86% | –
35 | O=C(CN1CCCC1)Nc1cccc(Cc2cccc(NC(=O)CN3CCCC3)c2)c1 | 20% | Activity (Mus musculus [1]): inactive
36 | CC(=O)Nc1ccc(Cc2ccc(NC(C)=O)cc2)cc1 | 84% | –
37 | Nc1ccc(Cc2ccc(NC(=O)CN3CCCC3)cc2)cc1 | 75% | –
38 | O=C(CN1CCCC1)Nc1ccccc1NC(=O)CN1CCCC1 | 82% | –
39 | O=C(CN1CCC[C@@H]1CO)Nc1ccc(Cc2ccc(NC(=O)CN3CCC[C@@H]3CO)cc2)cc1 | 75% | –
40 | COC(=O)[C@H]1CCCN1CC(=O)Nc1ccc(Cc2ccc(NC(=O)CN3CCC[C@@H]3C(=O)OC)cc2)cc1 | 112% | –
41 | O=C(CN1CCCC1)Nc1ccc(Cc2ccc(NC(=O)CN3CCCC3)c(Cl)c2)cc1Cl | 38% | –
42 | Nc1ccc(Cc2ccc(N)cc2)cc1 | 86% | –
43 | O=C(CN1CCCC1)Nc1ccc(Cc2ccc(NC(=O)CN3CCCC3)cc2)cc1 | 25% | IC50 [2]: 1400 nM; RU (Mus musculus [5]): 15
44 | O=C(CN1CC[C@H](O)C1)Nc1ccc(Cc2ccc(NC(=O)CN3CC[C@H](O)C3)cc2)cc1 | 90% | –
45 | O=C(CN1CCCC1)Nc1cccc2c(NC(=O)CN3CCCC3)cccc12 | 110% | –
46 | O=C(CN1CCCCC1)Nc1ccc(Cc2ccc(NC(=O)CN3CCCC3)cc2)cc1 | 29% | Activity (Mus musculus [1]): inactive
47 | O=C(CN1CCCC1)Nc1ccc(NC(=O)CN2CCCC2)cc1 | 88% | –
48 | CCCN(CCC)CC(=O)Nc1ccc(Cc2ccc(NC(=O)CN(CCC)CCC)cc2)cc1 | 48% | –

Row | SMILES | Activity (GT1-7) | further results
49 | O=C(CN1CCC[C@H]1C(F)(F)F)Nc1ccc(Cc2ccc(NC(=O)CN3CCC[C@H]3C(F)(F)F)cc2)cc1 | 85% | –
50 | O=C(CN1CCCC1)Nc1ccc(CCc2ccc(NC(=O)CN3CCCC3)cc2)cc1 | 40% | –
51 | CC(C)(C(=O)Nc1ccc(Cc2ccc(NC(=O)C(C)(C)N3CCCC3)cc2)cc1)N1CCCC1 | 45% | –
52 | O=C(CN1CC[C@H](F)C1)Nc1ccc(Cc2ccc(NC(=O)CN3CC[C@H](F)C3)cc2)cc1 | 112% | –
53 | CN(C)[C@H]1CCN(CC(=O)Nc2ccc(Cc3ccc(NC(=O)CN4CC[C@H](N(C)C)C4)cc3)cc2)C1 | 34% | Activity (Mus musculus [1]): inactive
54 | O=C(CN(C1CCCCC1)C1CCCCC1)Nc1ccc(Cc2ccc(NC(=O)CN(C3CCCCC3)C3CCCCC3)cc2)cc1 | 106% | –
55 | CN(C)CC(=O)Nc1ccc(Cc2ccc(NC(=O)CN(C)C)cc2)cc1 | 58% | –
56 | O=C(Nc1ccc(Cc2ccc(NC(=O)c3ccccn3)cc2)cc1)c1ccccn1 | 122% | –
57 | O=C(CN1CCCC1)Nc1ccc(C(=O)c2ccc(NC(=O)CN3CCCC3)cc2)cc1 | 24% | Activity (Mus musculus [1]): inactive
58 | O=C(CN1CCC[C@H]1CO)Nc1ccc(Cc2ccc(NC(=O)CN3CCC[C@H]3CO)cc2)cc1 | 91% | –
59 | c1cc(NCCN2CCCC2)ccc1Cc1ccc(NCCN2CCCC2)cc1 | 28% | –
60 | CN(C(=O)CN1CCCC1)c1ccc(Cc2ccc(N(C)C(=O)CN3CCCC3)cc2)cc1 | 77% | –
61 | O=C(CN1CCCC1)Nc1ccc(Sc2ccc(NC(=O)CN3CCCC3)cc2)cc1 | 22% | Activity (Mus musculus [1]): inactive
62 | O=C(CN1CCCC1)Nc1ccc(Cc2ccc(NC(=O)CN3CC[C@@H](O)C3)cc2)cc1 | 43% | –
63 | CC(C)(C)C(c1ccc(NC(=O)CN2CCCC2)cc1)c1ccc(NC(=O)CN2CCCC2)cc1 | – | IC50 [2]: 790 nM; Activity (Mus musculus [4]): inactive
64 | O=C(CNC1CCCC1)Nc1ccc(Cc2ccc(NC(=O)CNC3CCCC3)cc2)cc1 | 26% | –
65 | O=C(CN1CCCCCC1)Nc1ccc(Cc2ccc(NC(=O)CN3CCCCCC3)cc2)cc1 | 29% | Activity (Mus musculus [1]): inactive
66 | O=C(Cn1ccnc1)Nc1ccc(Cc2ccc(NC(=O)Cn3ccnc3)cc2)cc1 | 167% | –
67 | O=C(CN1CCCC1)Nc1ccc(Cc2ccc(NC(=O)CN3CC[C@H](O)C3)cc2)cc1 | 47% | –
68 | O=C(CN1CCCC1)Nc1ccc(C(c2ccc(NC(=O)CN3CCCC3)cc2)C2CCCCCC2)cc1 | – | IC50 [2]: 510 nM; Activity [3]: Non-toxic; Activity (Mus musculus [4]): inactive
69 | Nc1ccccc1Sc1nc(N)c(N)c(-c2ccco2)c1N | inactive | –
70 | NCC(=O)Nc1ccc(Cc2ccc(NC(=O)CN)cc2)cc1 | 102% | –

Source: ChEMBL document CHEMBL1681638, “Synthesis of GN8 derivatives and evaluation of their antiprion activity in TSE-infected cells” (Bioorg Med Chem Lett, 2011)
